Measurements published in PMC11785708, “Design and synthesis of new quinazolinone derivatives: investigation of antimicrobial and biofilm inhibition effects” (Molecular Diversity, 2024).
In brackets after ≈: the same amount, converted by molar mass.

What was measured:
P. aeruginosa ATCC 27953 [1] = assay: Agar well diffusion, P. aeruginosa; type: cell-based; conditions: Pseudomonas aeruginosa, ATCC27953; 100 μl of test compound 20 mg/ml in DMF; ciprofloxacin and fluconazole 30 μg/ml; 24 h; mean ± SD; read-out: diameters of inhibition zone, P. aeruginosa ATCC 27953
Procedure: (§1) The antimicrobial activity was tested against Gram positive bacteria: Bacillus cereus (B. cereus ATCC 6629), Bacillus subtilis (B. subtilis ATCC 6633), Staphylococcus aureus (S. aureus ATCC 6538), Gram negative bacteria: Klebsiella pneumoniae (K. pneumoniae ATCC 13883), Pseudomonas aeruginosa (P. aeruginosa ATCC 27953) and Candida albicans (C. albicans ATCC 10231). Glycerol stocks were thawed upon need and propagated into nutrient broth at 37 °C. The antibacterial activity of the compounds 9-32 was carried out in vitro using the agar well diffusion method, originally reported by […] and Bauer and coworkers and described by the National Committee for Clinical Laboratory Standards (NCCLS). Bacterial strains, adjusted at […] (equivalent to 0.5 McFarland), were used to inoculate nutrient agar plates. 9-mm diameter wells were punched into the solidified nutrient agar plates using sterile cork borer and 100 μl samples of the test compounds, dissolved in dimethyl formamide (DMF) at 20 mg/ml concentrations, were added and allowed to diffuse at 4 °C for 2 h. Subsequently, the plates were incubated overnight in an upright position at 37 °C. DMF was used as a negative control while ciprofloxacin and fluconazole (30 μg/ml) served as positive controls. After 24 h incubation, the diameters of the growth inhibition zones were recorded in mm. Data was expressed as mean ± standard deviation of three replicates.

B. subtilis ATCC 6633 [2] = assay: Agar well diffusion, B. subtilis; type: cell-based; conditions: Bacillus subtilis, ATCC6633; 100 μl of test compound 20 mg/ml in DMF; ciprofloxacin and fluconazole 30 μg/ml; 24 h; mean ± SD; read-out: diameters of inhibition zone, B. subtilis ATCC 6633
Procedure: as §1

K. pneumoniae ATCC 13883 [3] = assay: Agar well diffusion, K. pneumoniae; type: cell-based; conditions: Klebsiella pneumoniae, ATCC13883; 100 μl of test compound 20 mg/ml in DMF; ciprofloxacin and fluconazole 30 μg/ml; 24 h; mean ± SD; read-out: diameters of inhibition zone, K. pneumoniae ATCC 13883
Procedure: as §1

C. albicans ATCC 10231 [4] = assay: Agar well diffusion, C. albicans; type: cell-based; conditions: Candida albicans, ATCC10231; 100 μl of test compound 20 mg/ml in DMF; ciprofloxacin and fluconazole 30 μg/ml; 24 h; mean ± SD; read-out: diameters of inhibition zone, C. albicans ATCC 10231
Procedure: as §1

B. subtilis ATCC 6633 [5] = assay: MIC determination, B. subtilis; type: cell-based, Bacillus subtilis; conditions: serial dilutions, triplicate; for MIC: Bacillus subtilis, ATCC6633
Procedure: (§2) Serial dilutions of the test compounds were tested to determine their MIC against the most susceptible organisms. The MIC was expressed as the lowest concentration which inhibited the visible growth of the corresponding microorganism. All assays were performed in triplicate.

K. pneumoniae ATCC 13883 [6] = assay: MIC determination, K. pneumoniae; type: cell-based, Klebsiella pneumoniae; conditions: serial dilutions, triplicate; for MIC: Klebsiella pneumoniae, ATCC13883
Procedure: as §2

Cell viability MTT assay = type: cell-based; conditions: human, BJ1 cells (normal skin fibroblasts)
Procedure: Cell viability testing at 5 mg/ml was carried out by colorimetric MTT assay on human normal cell line BJ1 (skin fibroblasts) to investigate the toxicity of the most broad spectrum derivatives 9, 15, 16, 18, 19, 20 and 29 (Table 3). The viability of the cells treated with the aforementioned derivatives was more than 87% at 5 mg/ml concentration. This gives indication that the compounds are tolerated and nontoxic for human cells, as the cytotoxic dose was higher than the therapeutic dose on most of microorganisms. It is worth mentioning that the safe limit of the percent of dead cells is not an absolute value and could be more than 10% as reported in previous studies.
The most broad spectrum compounds were evaluated for their cytotoxic activity against BJ1 cell line using colorimetric MTT [3-(4,5-dimethylthiazol-2-yl)-2,5-diphenyltetrazolium bromide] assay.

P. aeruginosa ATCC 27953 [7] = assay: MIC determination, P. aeruginosa; type: cell-based, Pseudomonas aeruginosa; conditions: serial dilutions, triplicate; for MIC: Pseudomonas aeruginosa, ATCC27953
Procedure: as §2

B. cereus ATCC 6629 [8] = assay: MIC determination, B. cereus; type: cell-based, Bacillus cereus; conditions: serial dilutions, triplicate
Procedure: as §2

B. cereus ATCC 6629 [9] = assay: Agar well diffusion, B. cereus; type: cell-based; conditions: Bacillus cereus, ATCC6629; 100 μl of test compound 20 mg/ml in DMF; ciprofloxacin and fluconazole 30 μg/ml; 24 h; mean ± SD; read-out: diameters of inhibition zone, B. cereus ATCC 6629
Procedure: as §1

C. albicans ATCC 10231 [10] = assay: MIC determination, C. albicans; type: cell-based, Candida albicans; conditions: serial dilutions, triplicate
Procedure: as §2

S. aureus ATCC 6538 = assay: Agar well diffusion, S. aureus; type: cell-based; conditions: Staphylococcus aureus, ATCC6538; 100 μl of test compound 20 mg/ml in DMF; ciprofloxacin and fluconazole 30 μg/ml; 24 h; mean ± SD; read-out: diameters of inhibition zone, S. aureus ATCC 6538
Procedure: as §1

Row | melting point [°C] | SMILES | zone of inhibition at 20000 µg/mL (P. aeruginosa ATCC 27953 [1]) [mm] | zone of inhibition at 20000 µg/mL (B. subtilis ATCC 6633 [2]) [mm] | zone of inhibition at 20000 µg/mL (K. pneumoniae ATCC 13883 [3]) [mm] | zone of inhibition at 20000 µg/mL (C. albicans ATCC 10231 [4]) [mm] | further results
1 | 200 | O=c1c2ccccc2nc(CN2CCOCC2)n1N=Cc1ccc([N+](=O)[O-])cc1 [Compound 32, 2-(Morpholinomethyl)-3-[(4-nitrobenzylidene)amino]quinazolin-4(3H)-one] | 18 ± 0.09 | 14 ± 0.27 |  |  | 
2 | 132 | O=c1c2ccccc2nc(CN2CCOCC2)n1N=Cc1ccccc1 [Compound 27, 3-(Benzylideneamino)-2-(morpholinomethyl)quinazolin-4(3H)-one] |  | 14 ± 0.15 | 14 ± 0.16 | 13 ± 0.09 | 
3 | 116 | CCN(CC)Cc1nc2ccccc2c(=O)n1N=Cc1cc(OC)c(OC)c(OC)c1 [Compound 13, 2-[(Diethylamino)methyl]-3-[(3,4,5-trimethoxybenzylidene)amino]quinazolin-4(3H)-one] | 20 ± 0.18 |  | 12 ± 0.07 | 12 ± 0.28 | 
4 | 156 | Cc1ccc(C=Nn2c(CN3CCCC3)nc3ccccc3c2=O)cc1 [Compound 17, 3-[(4-Methylbenzylidene)amino]-2-(pyrrolidin-1-ylmethyl)quinazolin-4(3H)-one] | 16 ± 0.22 |  |  |  | 
5 | 78 | CCN(CC)Cc1nc2ccccc2c(=O)n1N=Cc1ccccc1 [Compound 9, 3-(Benzylideneamino)-2-[(diethylamino)methyl]quinazolin-4(3H)-one] | 21 ± 0.36 | 15 ± 0.25 | 12 ± 0.17 |  | MIC (B. subtilis ATCC 6633 [5]): 2000 µg/mL (≈ 5.98 mM); MIC (K. pneumoniae ATCC 13883 [6]): 1500 ± 60 µg/mL (≈ 4.49 mM); viability at 5 mg/ml (Cell viability MTT assay): 91.5 ± 2.21%; MIC (P. aeruginosa ATCC 27953 [7]): 2000 µg/mL (≈ 5.98 mM); MIC, P. aeruginosa ATCC 27953 (P. aeruginosa ATCC 27953 [7]): 2000 ± 290 µg/mL (≈ 5.98 mM); MIC (B. cereus ATCC 6629 [8]; Bacillus cereus, ATCC6629): 1000 µg/mL (≈ 2.99 mM); MIC, B. cereus ATCC 6629 (B. cereus ATCC 6629 [8]): 1000 ± 0 µg/mL (≈ 2.99 mM); zone of inhibition at 20000 µg/mL (B. cereus ATCC 6629 [9]): 14 ± 0.09 mm
6 | 140 to 142 | O=c1c2ccccc2nc(CN2CCOCC2)n1N=Cc1ccc(Cl)cc1 [Compound 28, 3-[(4-Chlorobenzylidene)amino]-2-(morpholinomethyl)quinazolin-4(3H)-one] |  | 12 ± 0.2 | 16 ± 0.18 |  | 
7 | 112 to 114 | COc1cc(C=Nn2c(CN3CCCCC3)nc3ccccc3c2=O)cc(OC)c1OC [Compound 25, 2-(Piperidin-1-ylmethyl)-3-[(3,4,5-trimethoxybenzylidene)amino]quinazolin-4(3H)-one] | 21 ± 0.17 |  | 14 ± 0.17 |  | 
8 | 138 | COc1ccc(C=Nn2c(CN3CCCCC3)nc3ccccc3c2=O)cc1 [Compound 24, 3-[(4-Methoxylbenzylidene)amino]-2-(piperidin-1-ylmethyl)quinazolin-4(3H)-one] | 14 ± 0.21 |  | 12 ± 0.14 |  | 
9 | 124 | Cc1ccc(C=Nn2c(CN3CCCCC3)nc3ccccc3c2=O)cc1 [Compound 23, 3-[(4-Methylbenzylidene)amino]-2-(piperidin-1-ylmethyl)quinazolin-4(3H)-one] |  |  |  | 11 ± 0.13 | 
10 | 74 | CCN(CC)Cc1nc2ccccc2c(=O)n1N=Cc1ccc(C)cc1 [Compound 11, 2-[(Diethylamino)methyl]-3-[(4-methylbenzylidene)amino]quinazolin-4(3H)-one] |  | 14 ± 0.16 |  |  | 
11 | 124 | CCN(CC)Cc1nc2ccccc2c(=O)n1N=Cc1ccc(Cl)cc1 [Compound 10, 3-[(4-Chlorobenzylidene)amino]-2-[(diethylamino)methyl]quinazolin-4(3H)-one] |  |  | 15 ± 0.15 |  | 
12 | 180 to 182 | O=c1c2ccccc2nc(CN2CCCCC2)n1N=Cc1ccc([N+](=O)[O-])cc1 [Compound 26] |  | 12 ± 0.11 | 11 ± 0.07 |  | 
13 | 102 to 104 | CCN(CC)Cc1nc2ccccc2c(=O)n1N=Cc1ccc(OC)cc1 [Compound 12, 2-[(Diethylamino)methyl]-3-[(4-methoxybenzylidene)amino]quinazolin-4(3H)-one] | 18 ± 0.27 |  |  |  | 
14 | 130 | O=c1c2ccccc2nc(CN2CCCCC2)n1N=Cc1ccc(Cl)cc1 [Compound 22, 3-[(4-Chlorobenzylidene)amino]-2-(piperidin-1-ylmethyl)quinazolin-4(3H)-one] |  | 10 ± 0.07 |  |  | 
15 | 128 | Cc1ccc(C=Nn2c(CN3CCOCC3)nc3ccccc3c2=O)cc1 [Compound 29, 3-[(4-Methylbenzylidene)amino]-2-(morpholinomethyl)quinazolin-4(3H)-one] | 14 ± 0.16 | 14 ± 0.06 | 20 ± 0.15 | 13 ± 0.07 | MIC (B. subtilis ATCC 6633 [5]): 500 µg/mL (≈ 1.38 mM); MIC, B. subtilis ATCC 6633 (B. subtilis ATCC 6633 [5]): 500 ± 60 µg/mL (≈ 1.38 mM); MIC (K. pneumoniae ATCC 13883 [6]): 2500 µg/mL (≈ 6.9 mM); MIC, K. pneumoniae ATCC 13883 (K. pneumoniae ATCC 13883 [6]): 2500 ± 500 µg/mL (≈ 6.9 mM); viability at 5 mg/ml (Cell viability MTT assay): 87.6 ± 3.61%; MIC (P. aeruginosa ATCC 27953 [7]): 1500 µg/mL (≈ 4.14 mM); MIC (C. albicans ATCC 10231 [10]; Candida albicans, ATCC10231): 5000 µg/mL (≈ 13.8 mM); MIC, C. albicans ATCC 10231 (C. albicans ATCC 10231 [10]): 5000 ± 290 µg/mL (≈ 13.8 mM)
16 | 98 | O=c1c2ccccc2nc(CN2CCCCC2)n1N=Cc1ccccc1 [Compound 21, 3-(Benzylideneamino)-2-(piperidin-1-ylmethyl)quinazolin-4(3H)-one] |  | 17 ± 0.14 | 12 ± 0.15 |  | zone of inhibition at 20000 µg/mL (B. cereus ATCC 6629 [9]): 12 ± 0.16 mm
17 | 138 | COc1ccc(C=Nn2c(CN3CCOCC3)nc3ccccc3c2=O)cc1 [Compound 30, 3-[(4-Methoxylbenzylidene)amino]-2-(morpholinomethyl)quinazolin-4(3H)-one] |  |  | 14 ± 0.15 |  | zone of inhibition at 20000 µg/mL (S. aureus ATCC 6538): 12 ± 0.12 mm
18 |  | OC(Cn1cncn1)(Cn1cncn1)c1ccc(F)cc1F [Fluconazole, reference compound] |  |  |  | 20 ± 0.18 | 
19 | 155 | COc1cc(C=Nn2c(CN3CCOCC3)nc3ccccc3c2=O)cc(OC)c1OC [Compound 31, 2-(Morpholinomethyl)-3-[(3,4,5-trimethoxybenzylidene)amino]quinazolin-4(3H)-one] |  |  |  |  | 
20 | 155 | CCN(CC)Cc1nc2ccccc2c(=O)n1N=Cc1ccc([N+](=O)[O-])cc1 [Compound 14, 2-[(Diethylamino)methyl]-3-[(4-nitrobenzylidene)amino]quinazolin-4(3H)-one] |  |  |  | 12 ± 0.37 | 
